Assay results as given in patent US11464770B2, “Anticancer pharmaceutical composition” (NATIONAL CANCER CENTER, priority 2016, dated 2022).
Read-outs that look alike come from different tables or passages of the source.

Tests used:
[1] = system: bladder cancer cell lines; assay: Cell based assay, cell viability (CellTiter-Glo), bladder cancer cell lines; details: 72 hours treatment, 0 to 2 μM, CellTiter-Glo
Description: (§1) Commercially available bladder cancer, prostate cancer, lung cancer, breast cancer, blood cancer, pancreatic cancer, colorectal cancer, brain cancer, neuroblastoma, melanoma, liver cancer, cervical carcinoma, ovarian cancer, renal cancer, and papilloma cell lines were each treated with trypsin-EDTA and cultured, followed by being seeded in each well of a 96 well plate. After 24 hours of treatment at constant temperature, the respective cells were treated with the candidate compound so that a final concentration became 0 to 2 μM. The treated cells were additionally cultured for 72 hours, and cell viability was measured by using an ATP detection method (CellTiter-Glo® Luminescent Cell Viability Assay, Promega).

neuroblastoma cell lines = assay: Cell based assay, cell viability (CellTiter-Glo), neuroblastoma cell lines; details: Homo sapiens; SH-SY5Y cell line
Description: as §1

[2] = 253J cells, read-out: IC50, bladder cancer cell line 253J
[3] = 5637 cells, read-out: IC50, bladder cancer cell line 5637
[4] = Homo sapiens, T-24, T24 cells, read-out: IC50, bladder cancer cell line T24
[5] = Homo sapiens, UMUC3, UM-UC-3 cells, read-out: IC50, bladder cancer cell line UM-UC-3
[6] = Homo sapiens, J82 cells, read-out: IC50, bladder cancer cell line J82
[7] = Homo sapiens, KU-19-19 cells, read-out: IC50, bladder cancer cell line KU-19-19
[8] = MBT-2 cells, read-out: IC50, bladder cancer cell line MBT-2

Compound	IC50 [1, 2]	IC50 [1, 3]	IC50 [1, 4]	IC50 [1, 5]	IC50 [1, 6]	IC50 [1, 7]	IC50 [1, 8]	IC50 (neuroblastoma cell lines)
CC(=O)c1c(SCc2ccc(F)c(Cl)c2)[nH]c2c(Br)ccc(Cl)c2c1=O [Compound 30, 3-acetyl-8-bromo-5-chloro-2-((3-chloro-4-fluorobenzyl)thio)quinolin-4(1H)-one]	> 2 µM	> 2 µM	> 2 µM	> 2 µM	> 2 µM	> 2 µM	> 2 µM	> 2 µM
CC(=O)c1c(SCc2ccc([N+](=O)[O-])cc2)[nH]c2c(Br)ccc(Cl)c2c1=O [Compound 32, 3-acetyl-8-bromo-5-chloro-2-((4-nitrobenzyl)thio)quinolin-4(1H)-one]	> 2 µM	> 2 µM	> 2 µM	> 2 µM	> 2 µM	> 2 µM	> 2 µM	> 2 µM
CSc1c(C(C)=O)c(=O)c2c(Cl)ccc(Br)c2n1S(C)(=O)=O [Compound 35, 3-acetyl-8-bromo-5-chloro-1-(methylsulfonyl)-2-(methylthio)quinolin-4(1H)-one]	> 2 µM	> 2 µM	> 2 µM	> 2 µM	> 2 µM	> 2 µM	> 2 µM	> 2 µM
CC(=O)c1c([S+](C)[O-])n(S(=O)(=O)C(F)(F)F)c2c(Br)ccc(Cl)c2c1=O (centres unmarked) [Compound 36, 3-acetyl-8-bromo-5-chloro-2-(methylsulfinyl)-1-((trifluoromethyl)sulfonyl)quinolin-4(1H)-one]	> 2 µM	> 2 µM	> 2 µM	> 2 µM	> 2 µM	> 2 µM	1.28 µM	> 2 µM
CSc1c(C(C)=O)c(=O)c2c(Cl)ccc(Br)c2n1S(=O)(=O)c1ccc(Cl)cc1 [Compound 37, 3-acetyl-8-bromo-5-chloro-1-((4-chlorophenyl)sulfonyl)-2-(methylthio)quinolin-4(1H)-one]	> 2 µM	> 2 µM	> 2 µM	> 2 µM	> 2 µM	> 2 µM	> 2 µM	> 2 µM
CSc1c(C(C)=O)c(=O)c2c(Cl)ccc(Br)c2n1S(=O)(=O)c1ccc([N+](=O)[O-])cc1 [Compound 38, 3-acetyl-8-bromo-5-chloro-2-(methylthio)-1-((4-nitrophenyl)sulfonyl)quinolin-4(1H)-one]	> 2 µM	> 2 µM	> 2 µM	> 2 µM	> 2 µM	> 2 µM	> 2 µM	> 2 µM
CCS(=O)(=O)n1c([S+](C)[O-])c(C(C)=O)c(=O)c2c(Cl)ccc(Br)c21 (centres unmarked) [Compound 39, 3-acetyl-8-bromo-5-chloro-1-(ethylsulfonyl)-2-(methylsulfinyl)quinolin-4(1H)-one]	> 2 µM	> 2 µM	> 2 µM	> 2 µM	> 2 µM	> 2 µM	> 2 µM	> 2 µM
CSc1c(C(C)=O)c(=O)c2c(Cl)ccc(Br)c2n1S(=O)(=O)c1ccc(C(C)(C)C)cc1 [Compound 40, 3-acetyl-8-bromo-1-((4-(tert-butyl)phenyl)sulfonyl)-5-chloro-2-(methylthio)quinolin-4(1H)-one]	> 2 µM	> 2 µM	> 2 µM	> 2 µM	> 2 µM	> 2 µM	> 2 µM	> 2 µM
CC(=O)c1c(S(C)(=O)=O)n(S(=O)(=O)c2ccc(C(C)(C)C)cc2)c2c(Br)ccc(Cl)c2c1=O [Compound 41, 3-acetyl-8-bromo-1-((4-(tert-butyl)phenyl)sulfonyl)-5-chloro-2-(methylsulfonyl)quinolin-4(1H)-one]	> 2 µM	> 2 µM	> 2 µM	> 2 µM	> 2 µM	> 2 µM	> 2 µM	> 2 µM
CC(=O)c1c([S+](C)[O-])n(S(=O)(=O)c2ccc(C(C)(C)C)cc2)c2c(Br)ccc(Cl)c2c1=O (centres unmarked) [Compound 42, 3-acetyl-8-bromo-1-((4-(tert-butyl)phenyl)sulfonyl)-5-chloro-2-(methylsulfinyl)quinolin-4(1H)-one]	> 2 µM	> 2 µM	> 2 µM	1.89 µM	> 2 µM	> 2 µM	> 2 µM	> 2 µM
CC(=O)c1c([S+]([O-])Cc2ccccc2)nc2c(Br)ccc(Cl)c2c1O (centres unmarked) [Compound 53, 1-(2-(benzylsulfinyl)-8-bromo-5-chloro-4-hydroxyquinolin-3-yl)ethan-1-one]	> 2 µM	> 2 µM	> 2 µM		> 2 µM			> 2 µM

Second part, the compound after the results:

IC50 [1, 2]	IC50 [1, 3]	IC50 [1, 4]	IC50 [1, 5]	IC50 [1, 6]	IC50 [1, 7]	IC50 [1, 8]	IC50 (neuroblastoma cell lines)	Compound
> 2 µM	> 2 µM	> 2 µM	> 2 µM	> 2 µM	> 2 µM	> 2 µM	> 2 µM	CC(=O)c1c(SCc2cc(Cl)ccc2Cl)[nH]c2c(Br)ccc(Cl)c2c1=O [Compound 43, 3-acetyl-8-bromo-5-chloro-2-((2,5-dichlorobenzyl)thio)quinolin-4(1H)-one]
> 2 µM	> 2 µM	> 2 µM	> 2 µM	> 2 µM	> 2 µM	> 2 µM	> 2 µM	CC(=O)c1c(SCc2cc(F)cc(F)c2)[nH]c2c(Br)ccc(Cl)c2c1=O [Compound 45, 3-acetyl-8-bromo-5-chloro-2-((3,5-difluorobenzyl)thio)quinolin-4(1H)-one]
> 2 µM	> 2 µM	> 2 µM	> 2 µM	> 2 µM	> 2 µM	> 2 µM	> 2 µM	CC(=O)c1c(SCc2cccc(I)c2)[nH]c2c(Br)ccc(Cl)c2c1=O [Compound 47, 3-acetyl-8-bromo-5-chloro-2-((3-iodobenzyl)thio)quinolin-4(1H)-one]
> 2 µM	> 2 µM	> 2 µM		> 2 µM			> 2 µM	CC(=O)c1c([S+]([O-])Cc2cccc(I)c2)[nH]c2c(Br)ccc(Cl)c2c1=O (centres unmarked) [Compound 48, 3-acetyl-8-bromo-5-chloro-2-((3-iodobenzyl)sulfinyl)quinolin-4(1H)-one]
> 2 µM	> 2 µM	> 2 µM	> 2 µM	> 2 µM	> 2 µM	> 2 µM	> 2 µM	CC(=O)c1c(SCc2cccc(F)c2)[nH]c2c(Br)ccc(Cl)c2c1=O [Compound 49, 3-acetyl-8-bromo-5-chloro-2-((3-fluorobenzyl)thio)quinolin-4(1H)-one]
> 2 µM	> 2 µM	> 2 µM	> 2 µM	> 2 µM	> 2 µM	> 2 µM	> 2 µM	CC(=O)c1c(SCc2ccccc2)nc2c(Br)ccc(Cl)c2c1O [Compound 52, 1-(2-(benzylthio)-8-bromo-5-chloro-4-hydroxyquinolin-3-yl)ethan-1-one]
> 2 µM	> 2 µM	> 2 µM		> 2 µM		> 2 µM	> 2 µM	CC(=O)c1c(S(=O)(=O)Cc2ccccc2)nc2c(Br)ccc(Cl)c2c1O [Compound 54, 1-(2-(benzylsulfonyl)-8-bromo-5-chloro-4-hydroxyquinolin-3-yl)ethan-1-one]
0.92 µM	> 2 µM	0.82 µM		> 2 µM			> 2 µM	CC(=O)c1c([S+]([O-])Cc2ccccc2C#N)[nH]c2c(Br)ccc(Cl)c2c1=O (centres unmarked) [Compound 58, 2-(((3-acetyl-8-bromo-5-chloro-4-oxo-1,4-dihydroquinolin-2-yl)sulfinyl)methyl)benzonitrile]
> 2 µM	> 2 µM	> 2 µM	> 2 µM	> 2 µM	> 2 µM	> 2 µM	> 2 µM	COCSc1[nH]c2c(Br)ccc(Cl)c2c(=O)c1C(C)=O [Compound 61, 3-acetyl-8-bromo-5-chloro-2-((methoxymethyl)thio)quinolin-4(1H)-one]
> 2 µM	> 2 µM	> 2 µM	> 2 µM	> 2 µM	> 2 µM	> 2 µM	> 2 µM	CC(=O)c1c(S)[nH]c2c(Br)ccc(Cl)c2c1=O [Compound 62, 3-acetyl-8-bromo-5-chloro-2-mercaptoquinolin-4(1H)-one]
> 2 µM	> 2 µM	> 2 µM		> 2 µM			> 2 µM	CC(=O)c1c([S+]([O-])Cc2ccc(C(=O)c3ccccc3)cc2)[nH]c2c(Br)ccc(Cl)c2c1=O (centres unmarked) [Compound 63, 3-acetyl-2-((4-benzoylbenzyl)sulfinyl)-8-bromo-5-chloroquinolin-4(1H)-one]
> 2 µM	> 2 µM	> 2 µM	> 2 µM	> 2 µM	> 2 µM	> 2 µM	> 2 µM	CC(=O)c1c([S+]([O-])CC#N)[nH]c2c(Br)ccc(Cl)c2c1=O (centres unmarked) [Compound 65, 2-((3-acetyl-8-bromo-5-chloro-4-oxo-1,4-dihydroquinolin-2-yl)sulfinyl)acetonitrile]
> 2 µM	> 2 µM	> 2 µM	> 2 µM	> 2 µM	> 2 µM	> 2 µM	> 2 µM	CC(=O)c1c(SCC#N)[nH]c2c(Br)ccc(Cl)c2c1=O [Compound 66, 2-((3-acetyl-8-bromo-5-chloro-4-oxo-1,4-dihydroquinolin-2-yl)thio)acetonitrile]
> 2 µM	> 2 µM	> 2 µM	> 2 µM	> 2 µM	> 2 µM	> 2 µM	> 2 µM	CC(=O)c1c(S/C=C\C(=O)O)[nH]c2c(Br)ccc(Cl)c2c1=O [Compound 67, (Z)-3-((3-acetyl-8-bromo-5-chloro-4-oxo-1,4-dihydroquinolin-2-yl)thio)acrylic acid]
0.97 µM	1.46 µM	1.47 µM	1.11 µM	1.49 µM	1.25 µM	1.07 µM	> 2 µM	CC(=O)c1c([S+]([O-])Cc2ccc(S(F)(F)(F)(F)F)cc2)[nH]c2c(Br)ccc(Cl)c2c1=O (centres unmarked) [Compound 68, 3-acetyl-8-bromo-5-chloro-2-((4-(pentafluoro-16-sulfanyl)benzyl)sulfinyl)quinolin-4(1H)-one]
